From patent US9630956B2, “Compounds useful as inhibitors of ATR kinase” (Vertex Pharmaceuticals Incorporated, priority 2010, dated 2017)
Read-outs that look alike come from different tables or passages of the source.

Molecular target: full-length ATR (Homo sapiens (Human), UniProt Q13535)
Assay: ATR Inhibition Assay (radioactive-phosphate incorporation)
Assay type: biochemical
Protocol: Compounds were screened for their ability to inhibit ATR kinase using a radioactive-phosphate incorporation assay. Assays were carried out in a mixture of 50 mM Tris/HCl (pH 7.5), 10 mM MgCl2 and 1 mM DTT. Final substrate concentrations were 10 μM [γ-33P]ATP (3 mCi 33P ATP/mmol ATP, Perkin Elmer) and 800 μM target peptide ([…]).
Assays were carried out at 25° C. in the presence of 5 nM full-length ATR. An assay stock buffer solution was prepared containing all of the reagents listed above, with the exception of ATP and the test compound of interest. 13.5 μL of the stock solution was placed in a 96 well plate followed by addition of 2 μL of DMSO stock containing serial dilutions of the test compound (typically starting from a final concentration of 15 μM with 3-fold serial dilutions) in duplicate (final DMSO concentration 7%). The plate was pre-incubated for 10 minutes at 25° C. and the reaction initiated by addition of 15 μL [γ-33P]ATP (final concentration 10 μM).
The reaction was stopped after 24 hours by the addition of 30 μL 0.1 M phosphoric acid containing 2 mM ATP. A multiscreen phosphocellulose filter 96-well plate (Millipore, Cat no. MAPHNOB50) was pretreated with 100 μL 0.2M phosphoric acid prior to the addition of 45 μL of the stopped assay mixture. The plate was washed with 5×200 μL 0.2M phosphoric acid. After drying, 100 μL Optiphase ‘SuperMix’ liquid scintillation cocktail (Perkin Elmer) was added to the well prior to scintillation counting (1450 Microbeta Liquid Scintillation Counter, Wallac).
After removing mean background values for all of the data points, Ki(app) data were calculated from non-linear regression analysis of the initial rate data using the Prism software package (GraphPad Prism version 3.0cx for Macintosh, GraphPad Software, San Diego Calif., USA).
Below is a chart showing the ATR Inhibition Ki values of compounds of the disclosure.

[1] = ATR Inhibition Ki(app), 10 μM ATP, 800 μM target peptide, 5 nM full-length ATR, 25° C.

Sequence of full-length ATR (Q13535 whole entry): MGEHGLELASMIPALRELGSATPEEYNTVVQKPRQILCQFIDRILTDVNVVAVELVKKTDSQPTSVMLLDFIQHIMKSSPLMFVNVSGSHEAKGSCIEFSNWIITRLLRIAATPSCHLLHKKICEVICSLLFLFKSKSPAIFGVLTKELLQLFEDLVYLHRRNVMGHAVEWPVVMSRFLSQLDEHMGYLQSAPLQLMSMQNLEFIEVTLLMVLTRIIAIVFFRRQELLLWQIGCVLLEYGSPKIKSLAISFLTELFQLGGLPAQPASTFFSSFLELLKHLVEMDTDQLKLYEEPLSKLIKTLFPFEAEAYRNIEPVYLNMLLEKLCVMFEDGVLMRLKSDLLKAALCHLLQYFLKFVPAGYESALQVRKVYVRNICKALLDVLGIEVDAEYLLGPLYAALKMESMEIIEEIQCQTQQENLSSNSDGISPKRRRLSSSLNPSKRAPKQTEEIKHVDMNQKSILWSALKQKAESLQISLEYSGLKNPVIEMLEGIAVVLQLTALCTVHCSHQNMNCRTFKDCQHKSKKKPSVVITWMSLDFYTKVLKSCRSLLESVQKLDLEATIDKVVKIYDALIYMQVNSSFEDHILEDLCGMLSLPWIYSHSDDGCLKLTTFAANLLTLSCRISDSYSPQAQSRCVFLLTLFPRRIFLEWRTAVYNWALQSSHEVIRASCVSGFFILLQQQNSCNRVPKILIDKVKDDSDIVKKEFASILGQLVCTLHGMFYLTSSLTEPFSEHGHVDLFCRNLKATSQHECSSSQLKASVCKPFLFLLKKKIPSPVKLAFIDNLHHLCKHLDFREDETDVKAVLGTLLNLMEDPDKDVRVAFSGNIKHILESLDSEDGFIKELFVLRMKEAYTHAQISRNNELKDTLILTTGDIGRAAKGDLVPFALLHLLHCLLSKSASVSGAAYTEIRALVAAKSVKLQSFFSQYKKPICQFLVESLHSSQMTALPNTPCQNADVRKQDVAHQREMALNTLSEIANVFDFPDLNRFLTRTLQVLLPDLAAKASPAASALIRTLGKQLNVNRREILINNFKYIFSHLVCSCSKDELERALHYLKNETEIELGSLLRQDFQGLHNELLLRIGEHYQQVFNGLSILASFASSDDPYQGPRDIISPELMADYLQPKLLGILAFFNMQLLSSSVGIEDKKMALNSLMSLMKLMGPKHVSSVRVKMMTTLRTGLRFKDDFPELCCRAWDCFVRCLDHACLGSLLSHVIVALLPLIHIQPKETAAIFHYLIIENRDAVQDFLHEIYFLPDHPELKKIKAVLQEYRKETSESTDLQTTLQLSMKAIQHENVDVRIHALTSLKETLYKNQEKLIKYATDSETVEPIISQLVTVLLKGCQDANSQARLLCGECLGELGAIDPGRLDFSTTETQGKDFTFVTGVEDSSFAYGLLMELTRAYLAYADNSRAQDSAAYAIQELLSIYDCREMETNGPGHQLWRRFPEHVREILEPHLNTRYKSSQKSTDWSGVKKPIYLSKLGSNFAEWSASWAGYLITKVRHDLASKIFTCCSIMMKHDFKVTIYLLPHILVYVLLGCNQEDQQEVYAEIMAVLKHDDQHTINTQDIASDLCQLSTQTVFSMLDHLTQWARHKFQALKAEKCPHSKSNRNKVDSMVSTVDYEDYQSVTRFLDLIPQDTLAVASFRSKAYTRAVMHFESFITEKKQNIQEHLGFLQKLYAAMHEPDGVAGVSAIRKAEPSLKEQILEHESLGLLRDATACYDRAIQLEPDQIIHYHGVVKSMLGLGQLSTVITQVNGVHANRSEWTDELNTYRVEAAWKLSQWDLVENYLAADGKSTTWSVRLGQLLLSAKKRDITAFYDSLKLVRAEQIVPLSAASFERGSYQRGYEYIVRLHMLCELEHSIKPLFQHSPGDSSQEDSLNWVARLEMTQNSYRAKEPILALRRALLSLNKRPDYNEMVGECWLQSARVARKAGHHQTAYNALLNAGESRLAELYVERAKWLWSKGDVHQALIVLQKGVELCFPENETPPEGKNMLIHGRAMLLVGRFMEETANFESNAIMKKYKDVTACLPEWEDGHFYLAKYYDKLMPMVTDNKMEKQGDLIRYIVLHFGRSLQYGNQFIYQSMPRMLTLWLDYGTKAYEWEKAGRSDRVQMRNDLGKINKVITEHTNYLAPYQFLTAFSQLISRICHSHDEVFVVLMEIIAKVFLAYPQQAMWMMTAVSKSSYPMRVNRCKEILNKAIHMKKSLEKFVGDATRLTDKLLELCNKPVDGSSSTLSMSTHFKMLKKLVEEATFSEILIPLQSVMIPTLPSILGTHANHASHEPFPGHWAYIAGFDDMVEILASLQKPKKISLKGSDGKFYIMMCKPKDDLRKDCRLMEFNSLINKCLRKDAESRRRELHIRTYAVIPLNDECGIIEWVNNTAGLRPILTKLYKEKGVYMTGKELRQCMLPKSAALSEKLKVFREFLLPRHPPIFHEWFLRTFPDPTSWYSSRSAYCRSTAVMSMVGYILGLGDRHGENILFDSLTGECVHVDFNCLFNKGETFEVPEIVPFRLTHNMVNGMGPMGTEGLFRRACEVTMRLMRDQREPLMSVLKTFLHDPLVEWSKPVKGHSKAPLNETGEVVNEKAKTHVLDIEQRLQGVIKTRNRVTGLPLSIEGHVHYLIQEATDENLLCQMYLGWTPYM

SMILES	Ki [1] [nM]	Ki [nM]
COc1cc(CNC(C)(C)C)ccc1-c1nnc(-c2nc(-c3ccc(=O)n(C(C)C)c3)cnc2N)o1 [Compound I-35]	≤ 5	–
CNCc1ccc(-c2nnc(-c3nc(-c4ccc(=O)n(CCO)c4)cnc3N)o2)cc1 [Compound I-4]	–	5 to 50
CNCc1ccc(-c2cc(-c3nc(-c4ccc(=O)[nH]c4)cnc3N)on2)cc1 [Compound I-76]	5 to 50	–
CCC(C#N)(CC)n1cc(-c2cnc(N)c(-c3cc(-c4ccc(CNC5CC5)cc4F)no3)n2)ccc1=O [Compound I-136]	≤ 5	–
CC#CC(C)n1cc(-c2cnc(N)c(-c3nnc(-c4ccc(CNC)cc4C)o3)n2)ccc1=O (stereo not shown) [Compound I-30]	≤ 5	–
CNCc1ccc(-c2nnc(-c3nc(-c4ccc(=O)n(C)c4)cnc3N)o2)cc1 [Compound I-1]	5 to 50	–
CCC(CC)n1cc(-c2cnc(N)c(-c3cc(-c4ccc(F)c(C(C)N)c4)no3)n2)ccc1=O (stereo not shown) [Compound I-141]	≤ 5	–
CNCc1ccc(-c2cc(-c3nc(-c4ccc(=O)n(CC(N)=O)c4)cnc3N)on2)cc1 [Compound I-98]	≤ 5	–
CNCc1ccc(-c2nnc(-c3nc(-c4ccc(=O)n(CC(F)(F)F)c4)cnc3N)o2)c(OC)c1 [Compound I-28]	≤ 5	–
CNCc1ccc(-c2cc(-c3nc(-c4ccc(=O)n(Cc5nccn5C)c4)cnc3N)on2)cc1 [Compound I-85]	≤ 5	–
CNCc1ccc(-c2cc(-c3nc(-c4ccc(=O)n(C(C)C(=O)NC)c4)cnc3N)on2)cc1 (stereo not shown) [Compound I-91]	≤ 5	–
CNCc1ccc(-c2cc(-c3nc(-c4ccc(=O)n(CCN5CCCC5=O)c4)cnc3N)on2)cc1 [Compound I-70]	≤ 5	–
CNCc1ccc(-c2cc(-c3nc(-c4c[nH]c(=O)c(CO)c4)cnc3N)on2)cc1 [Compound I-88]	≤ 5	–
CC(C)n1cc(-c2cnc(N)c(-c3cc(-c4ccc(CN[C@H]5CCOC5)cc4)no3)n2)ccc1=O [Compound I-23]	≤ 5	–
CCCn1cc(-c2cnc(N)c(-c3cc(-c4ccc(CNC)cc4)no3)n2)ccc1=O [Compound I-109]	≤ 5	–
CNCc1ccc(-c2cc(-c3nc(-c4ccc(=O)n(C5CCOCC5)c4)cnc3N)on2)cc1 [Compound I-66]	≤ 5	–
Cc1cc(CNC(C)(C)C)ccc1-c1nnc(-c2nc(-c3ccc(=O)n(C(C)C)c3)cnc2N)o1 [Compound I-21]	≤ 5	–

SMILES	Ki [1] [nM]	Ki [nM]
CNCc1ccc(-c2nnc(-c3nc(-c4ccc(=O)n(CCCN)c4)cnc3N)o2)cc1 [Compound I-5]	–	50 to 100
CC(C#N)n1cc(-c2cnc(N)c(-c3cc(-c4ccc(CNC5CC5)cc4)no3)n2)ccc1=O (stereo not shown) [Compound I-99]	≤ 5	–
CC(C)(CO)NCc1ccc(-c2cc(-c3nc(-c4ccc(=O)n(C5CCCC5)c4)cnc3N)on2)cc1 [Compound I-52]	–	5 to 50
CNCc1ccc(-c2nnc(-c3nc(-c4ccc(=O)n(C5CCCC5)c4)cnc3N)o2)c(C)c1 [Compound I-14]	≤ 5	–
Nc1ncc(-c2ccc(=O)n(C3CCCC3)c2)nc1-c1cc(-c2ccc(CN3CCCC3)cc2)no1 [Compound I-51]	–	5 to 50
CC(C)n1cc(-c2cnc(N)c(-c3cc(-c4ccc(C(N)CF)cc4)no3)n2)ccc1=O (stereo not shown) [Compound I-59]	5 to 50	–
CNCc1ccc(-c2nnc(-c3nc(-c4ccc(=O)n(C5CCOC5)c4)cnc3N)o2)cc1 (stereo not shown) [Compound I-9]	–	5 to 50
CCC(CC)n1cc(-c2cnc(N)c(-c3cc(-c4cccc(C5(N)CC5)c4)no3)n2)ccc1=O [Compound I-137]	5 to 50	–
Nc1ncc(-c2ccc(=O)[nH]c2)nc1-c1cc(-c2ccc(CNC3CC3)cc2)no1 [Compound I-111, 5-[5-amino-6-[3-[4-[(cyclopropylamino)methyl]phenyl]isoxazol-5-yl]pyrazin-2-yl]-1H-pyridin-2-one]	≤ 5	–
CNCc1ccc(-c2cc(-c3nc(-c4ccc(=O)n(Cc5ccoc5)c4)cnc3N)on2)cc1 [Compound I-69]	≤ 5	–
CNCc1ccc(-c2nnc(-c3nc(-c4ccc(=O)n(C(C)C)c4)cnc3N)o2)c(F)c1 [Compound I-10]	≤ 5	–
CNCc1ccc(-c2nnc(-c3nc(-c4ccc(=O)n(C(C)C)c4C)cnc3N)o2)c(C)c1 [Compound I-150]	50 to 100	–
CNCc1ccc(-c2nnc(-c3nc(-c4ccc(=O)n(C(C)CO)c4)cnc3N)o2)c(OC)c1 (stereo not shown) [Compound I-36]	≤ 5	–
CCN(CC)C(=O)C(C)n1cc(-c2cnc(N)c(-c3cc(-c4ccc(CNC)cc4)no3)n2)ccc1=O (stereo not shown) [Compound I-101, 2-(5-(5-amino-6-(3-(4-((methylamino)methyl)phenyl)isoxazol-5-yl)pyrazin-2-yl)-2-oxopyridin-1(2H)-yl)-N,N-diethylpropanamide]	–	5 to 50
CNCc1ccc(-c2cc(-c3nc(-c4ccc(=O)n(C(C)C)c4)cnc3N)on2)c(OC(C)C)c1 [Compound I-118]	≤ 5	–
CC(C)n1cc(-c2cnc(N)c(-c3nnc(-c4cccc(CNC(C)(C)C)c4)o3)n2)ccc1=O [Compound I-46]	50 to 100	–

Now from value to molecule:

Ki [1] [nM]	Ki [nM]	SMILES
≤ 5	–	CNCc1ccc(-c2cc(-c3nc(-c4c[nH]c(=O)c(C(C)C)c4)cnc3N)on2)cc1 [Compound I-100]
≤ 5	–	CNCc1ccc(-c2nnc(-c3nc(-c4ccc(=O)n(C(C)C#N)c4)cnc3N)o2)c(C)c1 (stereo not shown) [Compound I-16]
5 to 50	–	CC(C)n1cc(-c2cnc(N)c(-c3nnc(-c4ccc(CNC(C)(C)C)cc4C#N)o3)n2)ccc1=O [Compound I-40]
≤ 5	–	CNCc1ccc(-c2cc(-c3nc(-c4ccc(=O)n(C(C)C)c4)cnc3N)on2)c(F)c1 [Compound I-29]
5 to 50	–	CNCc1ccc(-c2nnc(-c3nc(-c4ccc(=O)n(C(C)CF)c4)cnc3N)o2)c(C)c1 (stereo not shown) [Compound I-31]
≤ 5	–	Cc1cc(CN[C@H]2CCOC2)ccc1-c1nnc(-c2nc(-c3ccc(=O)n(C(C)C)c3)cnc2N)o1 [Compound I-13, 5-[5-amino-6-[5-[2-methyl-4-[[[(3S)-tetrahydrofuran-3-yl]amino]methyl]phenyl]-1,3,4-oxadiazol-2-yl]pyrazin-2-yl]-1-isopropyl-pyridin-2-one]
≤ 5	–	CC(C)(C#N)n1cc(-c2cnc(N)c(-c3cc(-c4ccc(CNC5CC5)cc4)no3)n2)ccc1=O [Compound I-144]
≤ 5	–	CNCc1ccc(-c2nnc(-c3nc(-c4ccc(=O)n(C(C)C5CC5)c4)cnc3N)o2)c(C)c1 (stereo not shown) [Compound I-18]
≤ 5	–	CNCc1ccc(-c2nnc(-c3nc(-c4ccc(=O)n(C(C)COC)c4)cnc3N)o2)c(C)c1 (stereo not shown) [Compound I-17]
≤ 5	–	CCC(CC)n1cc(-c2cnc(N)c(-c3cc(-c4cccc(C(C)N)c4F)no3)n2)ccc1=O (stereo not shown) [Compound I-142]
5 to 50	–	CNCc1ccc(-c2nnc(-c3nc(-c4ccc(=O)n(CC#N)c4)cnc3N)o2)cc1 [Compound I-7]
≤ 5	–	CNCc1ccc(-c2cc(-c3nc(-c4ccc(=O)n(C5CCCC5)c4)cnc3N)on2)c(F)c1 [Compound I-56]
–	5 to 50	CNCc1ccc(-c2nnc(-c3nc(-c4ccc(=O)n(CCN(C)C)c4)cnc3N)o2)c(C)c1 [Compound I-24, 5-[5-amino-6-[5-[2-methyl-4-(methylaminomethyl)phenyl]-1,3,4-oxadiazol-2-yl]pyrazin-2-yl]-1-(2-dimethylaminoethyl)pyridin-2-one]
≤ 5	–	CNCc1ccc(-c2cc(-c3nc(-c4ccc(=O)n(CC5(C)COC5)c4)cnc3N)on2)cc1 [Compound I-113]
≤ 5	–	CNCc1ccc(-c2nnc(-c3nc(-c4ccc(=O)n(CC(C)C)c4)cnc3N)o2)c(OC)c1 [Compound I-26]
≤ 5	–	CNCc1ccc(-c2cc(-c3nc(-c4ccc(=O)n(CCOC)c4)cnc3N)on2)cc1 [Compound I-95]
≤ 5	–	CCn1cc(-c2cnc(N)c(-c3nnc(-c4ccc(CNC)cc4OC)o3)n2)ccc1=O [Compound I-19]
≤ 5	–	CNCc1ccc(-c2cc(-c3nc(-c4ccc(=O)n(C)c4)cnc3N)on2)cc1 [Compound I-108]
50 to 100	–	CCc1cc(-c2cnc(N)c(-c3cc(-c4ccc(CNC)cc4)no3)n2)cn(C(C)C)c1=O [Compound I-75]
–	5 to 50	CNCc1ccc(-c2nnc(-c3nc(-c4ccc(=O)n(C(C)C(=O)O)c4)cnc3N)o2)c(C)c1 (stereo not shown) [Compound I-38, 2-[5-[5-amino-6-[5-[2-methyl-4-(methylaminomethyl)phenyl]-1,3,4-oxadiazol-2-yl]pyrazin-2-yl]-2-oxo-1-pyridyl]propanoic acid]
≤ 5	–	CC(N)c1cccc(-c2cc(-c3nc(-c4ccc(=O)n(C(C)C(N)=O)c4)cnc3N)on2)c1 (stereo not shown) [Compound I-104]
≤ 5	–	CNCc1ccc(-c2nnc(-c3nc(-c4ccc(=O)[nH]c4)cnc3N)o2)cc1 [Compound I-148]
–	5 to 50	CNCc1ccc(-c2nnc(-c3nc(-c4ccc(=O)n(C5CCOC5)c4)cnc3N)o2)c(OC)c1 (stereo not shown) [Compound I-8]
≤ 5	–	CNCc1ccc(-c2nnc(-c3nc(-c4ccc(=O)n(C(C)C)c4)cnc3N)o2)c(C)c1 [Compound I-12]
–	50 to 100	CC(C)n1cc(-c2cnc(N)c(-c3cc(-c4ccc(CNc5ccccc5)cc4)no3)n2)ccc1=O [Compound I-65]
